Reference: patent US9642869B2, “Boronic acid derivatives and therapeutic uses thereof” (Rempex Pharmaceuticals, Inc., priority 2013, dated 2017)
Read-outs that look alike come from different tables or passages of the source.

Columns and labels:
CTX-M-15 KP1009 [1] = type: cell-based
ECL1002 [2] = type: cell-based; details: for TIG MPC4 ECL1002: minimum BLI concentration inhibiting growth with tigemonam at 4 μg/mL
SHV-5 ec308 [3] = type: cell-based; details: for TIG MPC4 SHV-5 ec308: minimum BLI concentration inhibiting growth with tigemonam at 4 μg/mL
CTX-M-14 KP1005 [4] = type: cell-based
CMY-6 EC1010 [5] = type: cell-based
TEM-10 ec302 [6] = type: cell-based
ECL1002 [7] = test: Aztreonam potentiation (MPC@4); type: cell-based; details: minimum BLI concentration inhibiting growth with 4 μg/mL aztreonam
OXA-48 KP1086 = test: Biapenem potentiation (MPC@1); type: cell-based; details: minimum BLI concentration inhibiting growth with 1 μg/mL biapenem
Experimental: (§1) Biapenem was present in the test medium at 1 μg/mL. […] Table 3 summarizes the BLI potency of biapenem potentiation (MPC@1) for two strains overexpressing class A (KPC) and class D (OXA-48) carbapenemases. Biapenem MIC for each strain is also shown.

KP1004 KPC-2 = test: Biapenem potentiation (MPC@1); type: cell-based; details: minimum BLI concentration inhibiting growth with 1 μg/mL biapenem
Experimental: as §1

CTX-M-14 KP1005 [8] = test: Aztreonam potentiation (MPC@4); type: cell-based; details: minimum BLI concentration inhibiting growth with 4 μg/mL aztreonam
OXA-48 = OXA-48 (Klebsiella pneumoniae, UniProt Q6XEC0); test: Inhibition of nitrocefin cleavage by purified enzyme (Ki); type: biochemical; details: nitrocefin reporter substrate, 10 min preincubation; read-out: Ki (OXA-48, NCF)
Sequence of OXA-48 (Q6XEC0 23-265 limits assumed): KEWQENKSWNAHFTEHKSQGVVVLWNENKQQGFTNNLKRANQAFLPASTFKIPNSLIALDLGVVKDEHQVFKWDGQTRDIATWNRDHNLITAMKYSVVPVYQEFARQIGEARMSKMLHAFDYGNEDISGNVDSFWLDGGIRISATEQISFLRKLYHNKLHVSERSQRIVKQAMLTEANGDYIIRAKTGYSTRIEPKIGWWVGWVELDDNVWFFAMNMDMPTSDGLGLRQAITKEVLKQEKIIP
In short: (§2)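 10 min RT preincubation, enzyme with inhibitor series in reaction buffer. Substrate nitrocefin; kinetic read 490 nm, 10 sec intervals, 10 min total.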

KPC-2 = KPC-2 (Klebsiella pneumoniae, UniProt Q9F663); test: as above; type: biochemical; details: nitrocefin reporter substrate, 10 min preincubation; read-out: Ki (KPC-2, NCF)
Sequence of KPC-2 (Q9F663 25-293 limits assumed): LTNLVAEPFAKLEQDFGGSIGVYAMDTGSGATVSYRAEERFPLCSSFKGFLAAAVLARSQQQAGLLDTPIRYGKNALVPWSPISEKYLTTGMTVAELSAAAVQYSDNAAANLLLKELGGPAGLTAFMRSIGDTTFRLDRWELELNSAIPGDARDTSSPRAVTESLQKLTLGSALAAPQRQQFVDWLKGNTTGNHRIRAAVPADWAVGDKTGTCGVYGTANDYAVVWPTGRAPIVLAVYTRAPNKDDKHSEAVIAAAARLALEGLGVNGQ
In short: as §2

CTX-M-14 = CTX-M-14 (Escherichia coli, UniProt Q9L5C7); test: as above; type: biochemical; details: nitrocefin reporter substrate, 10 min preincubation; read-out: Ki (CTX-M-14, NCF)
Sequence of CTX-M-14 (Q9L5C7 entry or part of it): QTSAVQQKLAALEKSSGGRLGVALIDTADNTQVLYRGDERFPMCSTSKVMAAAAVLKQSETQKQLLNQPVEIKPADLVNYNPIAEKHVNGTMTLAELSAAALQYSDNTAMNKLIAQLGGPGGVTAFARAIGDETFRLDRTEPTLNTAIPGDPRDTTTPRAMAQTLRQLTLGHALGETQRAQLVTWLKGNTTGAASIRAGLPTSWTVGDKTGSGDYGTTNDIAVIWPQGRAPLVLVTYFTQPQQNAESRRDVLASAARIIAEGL
In short: as §2

P99 = P99 (Enterobacter cloacae, UniProt P05364); test: as above; type: biochemical; details: nitrocefin reporter substrate, 10 min preincubation; read-out: Ki (P99, NCF)
Sequence of P99 (P05364 21-381): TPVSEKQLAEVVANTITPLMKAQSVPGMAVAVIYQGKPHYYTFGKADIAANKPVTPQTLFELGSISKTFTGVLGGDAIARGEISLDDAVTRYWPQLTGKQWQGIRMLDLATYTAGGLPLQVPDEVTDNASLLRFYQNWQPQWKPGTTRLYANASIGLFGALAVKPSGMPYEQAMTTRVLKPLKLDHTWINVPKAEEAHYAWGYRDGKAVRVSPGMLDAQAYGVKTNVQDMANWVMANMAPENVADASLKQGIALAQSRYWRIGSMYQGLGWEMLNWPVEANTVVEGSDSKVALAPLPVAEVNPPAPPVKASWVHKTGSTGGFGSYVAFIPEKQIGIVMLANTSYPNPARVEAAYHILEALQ
In short: as §2

SHV-12 = SHV-12 (Klebsiella pneumoniae, UniProt P0AD64, E235K/G234S/L31Q); test: as above; type: biochemical
Sequence of SHV-12 (P0AD64 22-286 L31Q/G234S/E235K): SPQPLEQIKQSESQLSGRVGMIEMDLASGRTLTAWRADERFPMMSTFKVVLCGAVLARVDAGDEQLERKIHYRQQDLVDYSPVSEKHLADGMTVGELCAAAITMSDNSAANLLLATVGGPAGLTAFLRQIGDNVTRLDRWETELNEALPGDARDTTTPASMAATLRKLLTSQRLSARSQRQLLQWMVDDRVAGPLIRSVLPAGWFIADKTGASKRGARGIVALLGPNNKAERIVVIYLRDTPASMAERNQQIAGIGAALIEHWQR
In short: as §2

KPC-2 KP1004 = test: Aztreonam potentiation (MPC@4); type: cell-based; details: minimum BLI concentration inhibiting growth with 4 μg/mL aztreonam
CMY-6 EC1010 [9] = test: Aztreonam potentiation (MPC@4); type: cell-based; details: minimum BLI concentration inhibiting growth with 4 μg/mL aztreonam
SHV-5 ec308 [10] = test: Aztreonam potentiation (MPC@4); type: cell-based; details: minimum BLI concentration inhibiting growth with 4 μg/mL aztreonam
TEM-10 ec302 [11] = test: Aztreonam potentiation (MPC@4); type: cell-based; details: minimum BLI concentration inhibiting growth with 4 μg/mL aztreonam
CTX-M-15 KP1009 [12] = test: Aztreonam potentiation (MPC@4); type: cell-based; details: minimum BLI concentration inhibiting growth with 4 μg/mL aztreonam
[13] = Intravenous pharmacokinetics; type: in vivo; details: rat, plasma, rats, IV infusion over 0.5 hours, read-out: Free Cl (converted)
Experimental: Rats (n=3 per compound) were administered by a single infusion. IV doses were infused over 0.5 hours via an indwelling femoral vein cannula. Plasma (˜0.3 mL) samples were collected from each rat at designated time points up to 24 hours. Blood samples were centrifuged within 5 min of collection at 12000 g for 5 min to obtain plasma. The plasma samples were stored at −80° C. until analyzed. Data were analyzed using WinNonlin.

[14] = Salt/complex formation to maintain the monomeric form (solution pH, monomer by HPLC); type: physicochemical
Experimental: The effect of additives that would form a salt or complex with the boronic acid derivatives was evaluated in order to identify those that would strongly favor the monomeric form at an acceptable pH for IV infusion (pH 4-8). […] The pH of the resulting homogeneous solution was measured with a pH meter and the purity was monitored by HPLC. Several bases and complexing agents were screened to identify those that would afford the highest monomer content as salt/complex with a desired pH. […] Oligomerization was more pronounced at higher concentrations with some bases and complexing agents. Among all the bases screened, the meglumine complex gave the highest percentage of monomeric form at the desired pH.

[15] = Compound 13 2 mg/mL in water, Pyridine-2-methanol, 2 equivalents
[16] = Compound 13 3 mg/mL in water, L-Lysine, 2 equivalents
[17] = Compound 13 10 mg/mL in water, 0.5N NaOH, 1 equivalent
[18] = Compound 13 10 mg/mL in water, 0.5N NaOH, 2 equivalents
[19] = Compound 13 10 mg/mL in water, Diethanolamine, 2 equivalents
[20] = Compound 13 10 mg/mL in water, Ethanolamine, 2 equivalents
[21] = Compound 13 10 mg/mL in water, Tris, 2 equivalents
[22] = Compound 13 50 mg/mL in water, Tris, 2 equivalents
[23] = Compound 13 50 mg/mL in water, Tris, 3 equivalents

CC1(C)[C@H](NC(=O)/C(=N\OCC(=O)O)c2csc(N)n2)C(=O)N1OS(=O)(=O)O [Tigemonam, reference compound]
Tigemonam MIC (CTX-M-15 KP1009 [1]; strain CTX-M-15 KP1009, tigemonam alone): >64 µg/mL
Tigemonam MIC (ECL1002 [2]; strain ECL1002, tigemonam alone): 32 µg/mL
Tigemonam MIC (SHV-5 ec308 [3]; strain SHV-5 ec308, tigemonam alone): >64 µg/mL
Tigemonam MIC (CTX-M-14 KP1005 [4]; strain CTX-M-14 KP1005, tigemonam alone): >64 µg/mL
Tigemonam MIC (CMY-6 EC1010 [5]; strain CMY-6 EC1010, tigemonam alone): 16 µg/mL
Tigemonam MIC (TEM-10 ec302 [6]; strain TEM-10 ec302, tigemonam alone): >64 µg/mL

CNC(=O)CC(=O)N[C@H]1Cc2cccc(C(=O)O)c2OB1O [Compound 21, (R)-2-hydroxy-3-(3-(methylamino)-3-oxopropanamido)-3,4-dihydro-2H-benzo[e][1,2]oxaborinine-8-carboxylic acid]
AZT MPC4 ECL1002 (ECL1002 [7]): X (MIC of less than 1 μg/mL)
BPM MPC1 OXA-48 KP1086 (OXA-48 KP1086): Y (MIC of 1 μg/mL to 10 μg/mL)
BPM MPC1 KP1004 KPC-2 (KP1004 KPC-2): X (MIC of less than 1 μg/mL)
AZT MPC4 CTX-M-14 KP1005 (CTX-M-14 KP1005 [8]): Y (MIC of 1 μg/mL to 10 μg/mL)
Ki (OXA-48): < 1 nM
Ki (KPC-2): > 10 nM
Ki (CTX-M-14): 1 to 10 nM
Ki (P99): 1 to 10 nM
Ki (SHV-12): < 1 nM
AZT MPC4 KPC-2 KP1004 (KPC-2 KP1004): Y (MIC of 1 μg/mL to 10 μg/mL)
AZT MPC4 CMY-6 EC1010 (CMY-6 EC1010 [9]): X (MIC of less than 1 μg/mL)
TIG MPC4 CTX-M-15 KP1009 (CTX-M-15 KP1009 [1]): Y (key: X: MIC of less than 1 μg/mL; Y: MIC of 1 μg/mL to 10 μg/mL; Z: MIC of greater than 10 μg/mL)
AZT MPC4 SHV-5 ec308 (SHV-5 ec308 [10]): X (MIC of less than 1 μg/mL)
TIG MPC4 ECL1002 (ECL1002 [2]): X (MIC of less than 1 μg/mL)
TIG MPC4 SHV-5 ec308 (SHV-5 ec308 [3]): Y (MIC of 1 μg/mL to 10 μg/mL)
TIG MPC4 CTX-M-14 KP1005 (CTX-M-14 KP1005 [4]): Y (key: X: MIC of less than 1 μg/mL; Y: MIC of 1 μg/mL to 10 μg/mL; Z: MIC of greater than 10 μg/mL)
TIG MPC4 CMY-6 EC1010 (CMY-6 EC1010 [5]; minimum BLI concentration inhibiting growth with tigemonam at 4 μg/mL): X (MIC of less than 1 μg/mL)
AZT MPC4 TEM-10 ec302 (TEM-10 ec302 [11]): Y (MIC of 1 μg/mL to 10 μg/mL)
AZT MPC4 CTX-M-15 KP1009 (CTX-M-15 KP1009 [12]): X (MIC of less than 1 μg/mL)

NC(=O)CC(=O)N[C@H]1Cc2cccc(C(=O)O)c2OB1O [Compound 16, (R)-3-(3-amino-3-oxopropanamido)-2-hydroxy-3,4-dihydro-2H-benzo[e][1,2]oxaborinine-8-carboxylic acid]
AZT MPC4 ECL1002 (ECL1002 [7]): X (MIC of less than 1 μg/mL)
BPM MPC1 OXA-48 KP1086 (OXA-48 KP1086): Y (MIC of 1 μg/mL to 10 μg/mL)
BPM MPC1 KP1004 KPC-2 (KP1004 KPC-2): X (MIC of less than 1 μg/mL)
Ki (OXA-48): < 1 nM
Ki (SHV-12; nitrocefin reporter substrate, 10 min preincubation, read-out: Ki (SHV-12, NCF)): < 1 nM
AZT MPC4 KPC-2 KP1004 (KPC-2 KP1004): Y (MIC of 1 μg/mL to 10 μg/mL)
AZT MPC4 CMY-6 EC1010 (CMY-6 EC1010 [9]): X (MIC of less than 1 μg/mL)
TIG MPC4 CTX-M-15 KP1009 (CTX-M-15 KP1009 [1]): X (key: X: MIC of less than 1 μg/mL; Y: MIC of 1 μg/mL to 10 μg/mL; Z: MIC of greater than 10 μg/mL)
AZT MPC4 SHV-5 ec308 (SHV-5 ec308 [10]): X (MIC of less than 1 μg/mL)
TIG MPC4 ECL1002 (ECL1002 [2]): X (MIC of less than 1 μg/mL)
TIG MPC4 SHV-5 ec308 (SHV-5 ec308 [3]): Y (MIC of 1 μg/mL to 10 μg/mL)
TIG MPC4 CTX-M-14 KP1005 (CTX-M-14 KP1005 [4]): Y (key: X: MIC of less than 1 μg/mL; Y: MIC of 1 μg/mL to 10 μg/mL; Z: MIC of greater than 10 μg/mL)
clearance ([13]; dose 10 mg/kg): 14.5 mL/min/kg
AZT MPC4 CTX-M-15 KP1009 (CTX-M-15 KP1009 [12]): X (MIC of less than 1 μg/mL)

CSCC(=O)N[C@H]1Cc2cccc(C(=O)O)c2OB1O [Compound 13, (R)-2-hydroxy-3-(2-(methylthio)acetamido)-3,4-dihydro-2H-benzo[e][1,2]oxaborinine-8-carboxylic acid]
AZT MPC4 ECL1002 (ECL1002 [7]): X (MIC of less than 1 μg/mL)
BPM MPC1 OXA-48 KP1086 (OXA-48 KP1086): Y (MIC of 1 μg/mL to 10 μg/mL)
BPM MPC1 KP1004 KPC-2 (KP1004 KPC-2): X (MIC of less than 1 μg/mL)
AZT MPC4 KPC-2 KP1004 (KPC-2 KP1004): X (MIC of less than 1 μg/mL)
AZT MPC4 CMY-6 EC1010 (CMY-6 EC1010 [9]): X (MIC of less than 1 μg/mL)
TIG MPC4 CTX-M-15 KP1009 (CTX-M-15 KP1009 [1]): X (key: X: MIC of less than 1 μg/mL; Y: MIC of 1 μg/mL to 10 μg/mL; Z: MIC of greater than 10 μg/mL)
AZT MPC4 SHV-5 ec308 (SHV-5 ec308 [10]): X (MIC of less than 1 μg/mL)
TIG MPC4 ECL1002 (ECL1002 [2]): X (MIC of less than 1 μg/mL)
TIG MPC4 SHV-5 ec308 (SHV-5 ec308 [3]): X (MIC of less than 1 μg/mL)
TIG MPC4 CTX-M-14 KP1005 (CTX-M-14 KP1005 [4]): X (key: X: MIC of less than 1 μg/mL; Y: MIC of 1 μg/mL to 10 μg/mL; Z: MIC of greater than 10 μg/mL)
clearance ([13]; dose 20 mg/kg): 41.2 mL/min/kg
AZT MPC4 CTX-M-15 KP1009 (CTX-M-15 KP1009 [12]): X (MIC of less than 1 μg/mL)
Monomer purity by HPLC (%) [14, 15]: 78%
pH [14, 15]: 5.5
Monomer purity by HPLC (%) [14, 16]: 97.3%
pH [14, 16]: 8.9
Monomer purity by HPLC (%) [14, 17]: 51.3%
pH [14, 17]: 7.3
Monomer purity by HPLC (%) [14, 18]: 60.9%
pH [14, 18]: 8.4
Monomer purity by HPLC (%) [14, 19]: 92.2%
pH [14, 19]: 11
Monomer purity by HPLC (%) [14, 20]: 97.1%
pH [14, 20]: 11
pH ([14]; Compound 13 10 mg/mL in water, Meglumine, 2 equivalents): 7.1
Monomer purity by HPLC (%) [14, 21]: 94.7%
pH [14, 21]: 7.8
pH ([14]; Compound 13 50 mg/mL in water, Meglumine, 2 equivalents): 7.2
Monomer purity by HPLC (%) [14, 22]: 89.7%
pH [14, 22]: 7.7
Monomer purity by HPLC (%) [14, 23]: 95.4%
pH [14, 23]: 8.5
TIG MPC4 TEM-10 ec302 (TEM-10 ec302 [6]): Y (key: X: MIC of less than 1 μg/mL; Y: MIC of 1 μg/mL to 10 μg/mL; Z: MIC of greater than 10 μg/mL)
